Experimental data reported in patent publication US20220062371A1, “LIGAND-DRUG-CONJUGATES AS SUBSTRATES FOR SELECTIVE CLEAVAGE BY THE EXOPEPTIDASE ACTIVITY OF CATHEPSIN B” (DEBIOPHARM RESEARCH & MANUFACTURING S.A., priority 2017, published 2022).
Read-outs that look alike come from different tables or passages of the source. Positions of bridges follow the written chain, without caps; N, C: chain ends. Non-standard residues stand in square brackets, D forms with d. Residues, ends and D or L forms follow the SMILES beside them. Groups on a side chain read outwards from the residue. Chains are numbered I, II in the order given. *: point of attachment. DM1Mal(CH2)2CO = COc1cc2cc(c1Cl)N(C)C(=O)C[C@H](OC(=O)[C@H](C)N(C)C(=O)CCSC1CC(=O)N(CCC(=O)*)C1=O)[C@]1(C)O[C@H]1[C@H](C)[C@@H]1C[C@@](O)(NC(=O)O1)[C@H](OC)/C=C/C=C(\C)C2; Camptothecin(20S-OCO) = CC[C@@]1(OC(=O)*)C(=O)OCc2c1cc1n(c2=O)Cc2cc3ccccc3nc2-1; X1 = CC[C@@]1(O*)C(=O)OCc2c1cc1n(c2=O)Cc2cc3ccccc3nc2-1; X2 = CC(=O)N[C@@H](CSC1CC(=O)N(CCC(=O)*)C1=O)C(=O)O; Dolaproine = CO[C@@H]([C@@H]1CCCN1)[C@@H](C)C(=O)O; Dil = CC[C@H](C)[C@H](NC)[C@@H](CC(=O)O)OC; NMe2Val = CC(C)[C@@H](C(=O)*)N(C)C; PEG5 = NCCOCCOCCOCCOCCOCCC(=O)O; Cit = NC(=O)NCCC[C@H](N)C(=O)O; PEG4 = NCCOCCOCCOCCOCCC(=O)O; Dab = NCC[C@H](N)C(=O)O; Sar = CNCC(=O)O

Target: T1, recombinant human Cathepsin B (Homo sapiens, UniProt P07858)
T1 construct: purchased R&D Systems (Bio-Techne AG) 953-CY-010
Assay: Recombinant human Cathepsin B-induced cleavage (in vitro enzymatic cleavage assay, UHPLC-MS/MS)
Assay type: biochemical
Settings: for half-life at 10 μM: human; for Ratio (T1/2 Compound/T1/2 Reference): reference Cys-MC-Val-Cit-PABC-MMAF; for cleavage rate compared to reference PABC compound (times faster): versus Cys-MC-Val-Cit-PABC-MMAF
Protocol: Cat B-induced cleavage of the compounds of the present invention was evaluated according to the in vitro enzymatic cleavage assay using recombinant human Cathepsin B and UHPLC-MS/MS analysis as described below.
Reference compounds Cys-MC-Val-Cit-PABC-MMAF and MMAF were used as positive controls.
The in vitro enzymatic assay was conducted at 37° C. with the test compounds at a concentration of 10 μM (2.5 μM when the test compound is an antibody-drug conjugate) in the presence of activated recombinant human Cathepsin B enzyme at 2 μg/mL in a 25 mM MES buffer pH 5.0. The enzymatic cleavage reaction was stopped for each defined time point by mixing an equal volume of acetonitrile+0.1% FA containing an internal standard (warfarine at 8 μM).
Analysis was conducted using a Waters Acquity UPLC System coupled to a Waters Xevo TQ triple quad mass spectrometer. UHPLC was conducted depending on the test compounds with a BEH C8 1.7 μm 100×2.1 mm or BEH C18 1.7 μm 50×2.1 mm or HSS T3 1.7 μm 50×2.1 mm columns heated at 45° C. or 50° C. and fitted with 2 μm insert filter pre-columns (available from Waters), and solvent systems A1 (H2O+0.1% FA) and B1 (acetonitrile+0.1% FA) at a flow rate of 0.6 mL/min and a 10-95% gradient of B1 over 1.9 min.
MS/MS was performed using electrospray ionization (ESI) interface in positive mode and specific MRM transitions for each tested compound.

[1] = pH 5, 10 μM test compound, Cathepsin B 2 μg/mL, 25 mM MES buffer pH 5.0, 37° C., read-out: T1/2 Compound
[2] = 10 μM test compound, Cathepsin B 2 μg/mL, 25 mM MES buffer pH 5.0, 37° C., read-out: T1/2 Compound
[3] = pH 5, text and figure legends, 10 μM test compound, read-out: t1/2 (Exo-Cat B-induced drug release study)

Compound | Cat B-induced cleavage, in words | half-life at 10 μM [1] [min] | Ratio (T1/2 Compound/T1/2 Reference) | half-life at 10 μM [2] [min] | cleavage rate compared to reference PABC compound (times faster) | half-life at 10 μM [3] [min]
CC[C@@]1(OC(=O)CN(C)C(=O)CC[C@H](NC(=O)[C@H](CCCNC(=N)N)NC(=O)[C@H](Cc2ccccc2)NC(=O)CCOCCOCCOCCOCCOCCNC(=O)[C@@H](N)CCCNC(=N)N)C(=O)N[C@@H](Cc2ccccc2)C(=O)O)C(=O)OCc2c1cc1n(c2=O)Cc2cc3ccccc3nc2-1 [Compound 8, Arg-PEG4-Phe-Arg-Glu(Sar-OCPT)-Phe-OH] (H-R[PEG5]FRE([Sar-X1])F-OH; N-terminus assumed) | rapidly cleaved | 2.2 | 0.19 |  |  | 
Arg-PEG4-[Phe-Arg-Glu(Sar-OCPT)-Arg]2-OH [Compound 18] | rapidly released |  |  |  |  | 
Arg-PEG4-Phe-Arg-Glu(Sar-OCPT)-Arg-Phe-Arg-OH [Compound 16] | rapidly cleaved |  |  |  |  | 
CC[C@H](C)[C@@H]([C@@H](CC(=O)N1CCC[C@H]1[C@H](OC)[C@@H](C)C(=O)N[C@@H](Cc1ccccc1)C(=O)N[C@@H](CCCNC(N)=O)C(=O)N[C@@H](CCCCn1cc(COC(=O)NCCCC[C@H](NC(=O)CCOCCOCCOCCOCCOCCNC(=O)CCN2C(=O)CC(SC[C@H](NC(C)=O)C(=O)O)C2=O)C(=O)NCCOCCOCCOCCOCCOCCC(=O)N[C@@H](CCCCNC(=O)OCc2cn(CCCC[C@H](NC(=O)[C@H](CCCNC(N)=O)NC(=O)[C@H](Cc3ccccc3)NC(=O)[C@H](C)[C@@H](OC)[C@@H]3CCCN3C(=O)C[C@@H](OC)[C@H]([C@@H](C)CC)N(C)C(=O)[C@@H](NC(=O)[C@H](C(C)C)N(C)C)C(C)C)C(=O)N[C@@H](Cc3ccccc3)C(=O)O)nn2)C(=O)NCC(N)=O)nn1)C(=O)N[C@@H](Cc1ccccc1)C(=O)O)OC)N(C)C(=O)[C@@H](NC(=O)[C@H](C(C)C)N(C)C)C(C)C (stereo partly drawn) [Compound 32, Ac-Cys-Mal-[PEG5-Lys(AF-Cit-Lys(Y)-Phe-OH)]2-Gly-NH2] |  |  | 0.06 | 0.98 | ~20 fold | 
COc1cc2cc(c1Cl)N(C)C(=O)C[C@H](OC(=O)[C@H](C)N(C)C(=O)CCSC1CC(=O)N(CCC(=O)NCCCC[C@H](NC(=O)[C@H](CCCCN)NC(=O)[C@H](Cc3ccccc3)NC(=O)CCOCCOCCOCCOCCNC(=O)CCN3C(=O)CC(SC[C@H](NC(C)=O)C(=O)O)C3=O)C(=O)N[C@@H](Cc3ccccc3)C(=O)O)C1=O)[C@]1(C)O[C@H]1[C@H](C)[C@@H]1C[C@@](O)(NC(=O)O1)[C@H](OC)/C=C/C=C(\C)C2 (stereo partly drawn) [Compound 12, Ac-Cys-Mal-PEG4-Phe-Lys-Lys(Mal-DM1)-Phe-OH] ({X2-PEG4}-FKK(DM1Mal(CH2)2CO)F-OH) |  | 1.5 |  |  |  | 1.53
CC[C@H](C)[C@@H]([C@@H](CC(=O)N1CCC[C@H]1[C@H](OC)[C@@H](C)C(=O)N[C@@H](Cc1ccccc1)C(=O)N[C@@H](CCCNC(=N)N)C(=O)N[C@@H](Cc1ccccc1)C(=O)N[C@@H](CCCCNC(=O)CCOCCOCCOCCOCCNC(=O)CCN1C(=O)CC(SC[C@H](NC(C)=O)C(=O)O)C1=O)C(=O)O)OC)N(C)C(=O)[C@@H](NC(=O)[C@H](C(C)C)N(C)C)C(C)C (stereo partly drawn) [Compound 3, AF-Arg-Phe-Lys(PEG4-Mal-Cys-Ac)-OH] (NMe2Val-V[Dil][Dolaproine]FRFK([PEG4-X2])-OH) |  | 1.4 | 0.11 |  |  | 
CC[C@@]1(OC(=O)NCC[C@H](NC(=O)[C@H](CCCNC(=N)N)NC(=O)[C@H](Cc2ccccc2)NC(=O)CCOCCOCCOCCOCCOCCNC(=O)[C@@H](N)CCCNC(=N)N)C(=O)N[C@@H](Cc2ccccc2)C(=O)O)C(=O)OCc2c1cc1n(c2=O)Cc2cc3ccccc3nc2-1 [Compound 10, Arg-PEG4-Phe-Arg-Dab(CO-CPT)-Phe-OH] (H-R[PEG5]FR[Dab](Camptothecin(20S-OCO))F-OH; N-terminus assumed) |  | 0.9 | 0.1 |  |  | 
CC[C@H](C)[C@@H]([C@@H](CC(=O)N1CCC[C@H]1[C@H](OC)[C@@H](C)C(=O)N[C@@H](Cc1ccccc1)C(=O)N[C@@H](CCCNC(=N)N)C(=O)N[C@@H](CCCCNC(=O)CCOCCOCCOCCOCCOCCNC(=O)CCN1C(=O)CC(SC[C@H](NC(C)=O)C(=O)O)C1=O)C(=O)N[C@@H](Cc1ccccc1)C(=O)O)OC)N(C)C(=O)[C@@H](NC(=O)[C@H](C(C)C)N(C)C)C(C)C (stereo partly drawn) [Compound 1, AF-Arg-Lys(PEG4-Mal-Cys-Ac)-Phe-OH] (NMe2Val-V[Dil][Dolaproine]FRK([PEG5-X2])F-OH) |  | 1.5 | 0.12 |  |  | 
CC[C@H](C)[C@@H]([C@@H](CC(=O)N1CCC[C@H]1[C@H](OC)[C@@H](C)C(=O)N[C@@H](Cc1ccccc1)C(=O)N[C@@H](CCCNC(N)=O)C(=O)N[C@@H](CCCCNC(=O)CCOCCOCCOCCOCCNC(=O)CCN1C(=O)CC(SC[C@H](NC(C)=O)C(=O)O)C1=O)C(=O)N[C@@H](Cc1ccccc1)C(=O)O)OC)N(C)C(=O)[C@@H](NC(=O)[C@H](C(C)C)N(C)C)C(C)C (stereo partly drawn) [Compound 19, AF-Cit-Lys(PEG4-Mal-Cys-Ac)-Phe-OH] (NMe2Val-V[Dil][Dolaproine]F[Cit]K([PEG4-X2])F-OH) |  | 1.1 | 0.09 |  |  | 
CC[C@H](C)[C@@H]([C@@H](CC(=O)N1CCC[C@H]1[C@H](OC)[C@@H](C)C(=O)N[C@@H](Cc1ccccc1)C(=O)NCCCC[C@H](NC(=O)[C@H](CCCCN)NC(=O)[C@H](Cc1ccccc1)NC(=O)CCOCCOCCOCCOCCNC(=O)CCN1C(=O)CC(SC[C@H](NC(C)=O)C(=O)O)C1=O)C(=O)N[C@@H](Cc1ccccc1)C(=O)O)OC)N(C)C(=O)[C@@H](NC(=O)[C@H](C(C)C)N(C)C)C(C)C (stereo partly drawn) [Compound 13, Ac-Cys-Mal-PEG4-Phe-Lys-Lys(AF)-Phe-OH] (I: {X2-PEG4}-FKKF-OH / II: NMe2Val-V[Dil][Dolaproine]F; amide I:3-II:C) |  | 1.6 | 0.15 |  |  | 1.62
Arg-PEG4-Phe-Arg-[Glu(Sar-OCPT)-Phe]2-OH [Compound 17] | rapidly released |  |  |  |  | 
CC[C@@]1(OC(=O)OC[C@H](NC(=O)[C@H](CCCNC(=N)N)NC(=O)[C@H](Cc2ccccc2)NC(=O)CCOCCOCCOCCOCCOCCNC(=O)[C@@H](N)CCCNC(=N)N)C(=O)N[C@@H](Cc2ccccc2)C(=O)O)C(=O)OCc2c1cc1n(c2=O)Cc2cc3ccccc3nc2-1 [Compound 11, Arg-PEG4-Phe-Arg-Ser(CO-CPT)-Phe-OH] (H-R[PEG5]FRS(Camptothecin(20S-OCO))F-OH; N-terminus assumed) |  | 2.2 | 0.2 |  |  | 
CC[C@H](C)[C@@H]([C@@H](CC(=O)N1CCC[C@H]1[C@H](OC)[C@@H](C)C(=O)N[C@@H](Cc1ccccc1)C(=O)NCCCC[C@H](NC(=O)[C@H](CCCNC(=N)N)NC(=O)[C@H](CCCCNC(=O)CCN1C(=O)CC(SCCC(=O)N(C)[C@@H](C)C(=O)O[C@H]2CC(=O)N(C)c3cc(cc(OC)c3Cl)C/C(C)=C/C=C/[C@@H](OC)[C@@]3(O)C[C@H](OC(=O)N3)[C@@H](C)[C@@H]3O[C@@]23C)C1=O)NC(=O)[C@H](CCCNC(=N)N)NC(=O)[C@H](Cc1ccccc1)NC(=O)CCOCCOCCOCCOCCNC(=O)CCN1C(=O)CC(SC[C@H](NC(C)=O)C(=O)O)C1=O)C(=O)N[C@@H](Cc1ccccc1)C(=O)O)OC)N(C)C(=O)[C@@H](NC(=O)[C@H](C(C)C)N(C)C)C(C)C (stereo partly drawn) [Compound 30, Ac-Cys-Mal-PEG4-Phe-Arg-Lys(Mal-DM1)-Arg-Lys(AF)-Phe-OH] ({X2-PEG4}-FRK(DM1Mal(CH2)2CO)RK([Phe-Dolaproine-Dil-Val-NMe2Val])F-OH) |  |  | 0.07 | 1.1 | more than 10 fold | 
COc1cc2cc(c1Cl)N(C)C(=O)C[C@H](OC(=O)[C@H](C)N(C)C(=O)CCSC1CC(=O)N(C[C@H]3CC[C@H](C(=O)NCCCC[C@H](NC(=O)[C@H](CCCNC(N)=O)NC(=O)[C@H](Cc4ccccc4)NC(=O)CCOCCOCCOCCOCCOCCNC(=O)CN4C(=O)CC(SC[C@H](NC(C)=O)C(=O)O)C4=O)C(=O)N[C@@H](Cc4ccc(O)cc4)C(=O)O)CC3)C1=O)[C@]1(C)O[C@H]1[C@H](C)[C@@H]1C[C@@](O)(NC(=O)O1)[C@H](OC)/C=C/C=C(\C)C2 (stereo partly drawn) [Compound 27, Ac-Cys-Ma-PEG5-Phe-Cit-Lys(Mcc-DM1)-Tyr-OH] |  | 0.06 | 0.005 |  | ~2300 fold | 
